# Test results reported in patent US9149038B2, “4-amino-6-(heterocyclic)picolinates and 6-amino-2-(heterocyclic)pyrimidine-4-carboxylates and their use as herbicides” (Dow AgroSciences LLC, priority 2013, dated 2015).
# Where two headings read alike, the source gives them in different places.
# Tests used:
# [1] = tested on: Key Grass and Sedge Weeds as well as Grass Crops; assay: Post-Emergent Test II: postemergent herbicidal activity, visual rating after 14 d (Table 8); format: in vivo; conditions: post-emergence, 336 h; for pest or weed control at 35 g/ha: 35 g ai/ha; for pest or weed control at 70 g/ha: 70 g ai/ha; for pest or weed control at 140 g/ha: 140 g ai/ha
# Outline: (§1)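 Greenhouse-grown plants at the first or second true leaf stage (7-21 d, ~15 h photoperiod, 23-29° C day) were sprayed with compound in acetone/DMSO-based aqueous spray containing crop oil concentrate and Triton X-155 at 187 L/ha. Injury versus untreated plants was rated visually after 14 d on a 0-100 scale.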
# [2] = tested on: Key Broadleaf Weed and Crop Species; assay: Post-Emergent Test II: postemergent herbicidal activity, visual rating after 14 d (Table 7); format: in vivo; conditions: post-emergence, 336 h; for pest or weed control at 35 g/ha: 35 g ai/ha; for pest or weed control at 70 g/ha: 70 g ai/ha; for pest or weed control at 140 g/ha: 140 g ai/ha
# Outline: as §1
# [3] = barnyardgrass (Echinochloa crus-galli), read-out: Visual Growth Reduction (%) 14 Days After Application, ECHCG
# [4] = giant foxtail (Setaria faberi), read-out: Visual Growth Reduction (%) 14 Days After Application, SETFA
# [5] = maize, corn (Zea mays), read-out: Visual Growth Reduction (%) 14 Days After Application, ZEAMX
# [6] = rice (Oryza sativa), read-out: Visual Growth Reduction (%) 14 Days After Application, ORYSA
# [7] = wheat, spring (Triticum aestivum), read-out: Visual Growth Reduction (%) 14 Days After Application, TRZAS
# [8] = yellow nutsedge (Cyperus esculentus), read-out: Visual Growth Reduction (%) 14 Days After Application, CYPES
# [9] = ABUTH: velvetleaf (Abutilon theophrasti), read-out: Visual Growth Reduction (%) 14 Days After Application ABUTH
# [10] = AMARE: redroot pigweed (Amaranthus retroflexus), read-out: Visual Growth Reduction (%) 14 Days After Application AMARE
# [11] = BRSNN: oilseed rape, canola (Brassica napus), read-out: Visual Growth Reduction (%) 14 Days After Application BRSNN
# [12] = CHEAL: lambsquarters (Chenopodium album), read-out: Visual Growth Reduction (%) 14 Days After Application CHEAL
# [13] = EPHHL: wild poinsettia (Euphorbia heterophylla), read-out: Visual Growth Reduction (%) 14 Days After Application EPHHL
# [14] = HELAN: sunflower (Helianthus annuus), read-out: Visual Growth Reduction (%) 14 Days After Application HELAN
compound,measurement,setting,value
COC(=O)c1nc(-c2ccc(F)c3c2OC(F)(F)O3)cc(N)c1Cl [Compound 88],pest or weed control at 35 g/ha,[1]; [3],0 to 29%
same,pest or weed control at 70 g/ha,[1]; [3],0 to 29%
same,pest or weed control at 140 g/ha,[1]; [3],0 to 29%
same,pest or weed control at 35 g/ha,[1]; [4],0 to 29%
same,pest or weed control at 70 g/ha,[1]; [4],0 to 29%
same,pest or weed control at 140 g/ha,[1]; [4],0 to 29%
same,pest or weed control at 35 g/ha,[1]; [5],0 to 29%
same,pest or weed control at 70 g/ha,[1]; [5],0 to 29%
same,pest or weed control at 140 g/ha,[1]; [5],0 to 29%
same,pest or weed control at 35 g/ha,[1]; [6],0 to 29%
same,pest or weed control at 70 g/ha,[1]; [6],0 to 29%
same,pest or weed control at 140 g/ha,[1]; [6],0 to 29%
same,pest or weed control at 35 g/ha,[1]; [7],0 to 29%
same,pest or weed control at 70 g/ha,[1]; [7],45 to 59%
same,pest or weed control at 140 g/ha,[1]; [7],60 to 74%
same,pest or weed control at 35 g/ha,[1]; [8],30 to 44%
same,pest or weed control at 70 g/ha,[1]; [8],60 to 74%
same,pest or weed control at 140 g/ha,[1]; [8],75 to 84%
same,pest or weed control at 35 g/ha,[2]; [9],60 to 74%
same,pest or weed control at 70 g/ha,[2]; [9],85 to 94%
same,pest or weed control at 140 g/ha,[2]; [9],85 to 94%
same,pest or weed control at 35 g/ha,[2]; [10],95 to 100%
same,pest or weed control at 70 g/ha,[2]; [10],95 to 100%
same,pest or weed control at 140 g/ha,[2]; [10],95 to 100%
same,pest or weed control at 35 g/ha,[2]; [11],60 to 74%
same,pest or weed control at 70 g/ha,[2]; [11],60 to 74%
same,pest or weed control at 140 g/ha,[2]; [11],75 to 84%
same,pest or weed control at 35 g/ha,[2]; [12],85 to 94%
same,pest or weed control at 70 g/ha,[2]; [12],85 to 94%
same,pest or weed control at 140 g/ha,[2]; [12],95 to 100%
same,pest or weed control at 35 g/ha,[2]; [13],0 to 29%
same,pest or weed control at 70 g/ha,[2]; [13],0 to 29%
same,pest or weed control at 140 g/ha,[2]; [13],0 to 29%
same,pest or weed control at 35 g/ha,[2]; [14],30 to 44%
same,pest or weed control at 70 g/ha,[2]; [14],60 to 74%
same,pest or weed control at 140 g/ha,[2]; [14],60 to 74%
